Reference: PubChem BioAssay (NCI)
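The compound was tested at five concentrations on cells cultured in 96-well plates, with a 48-hour exposure period. TGI: concentration producing complete growth inhibition.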

Tests used:
Assay in all cases: NCI-60 cell line screen, 48 h
LOX IMVI melanoma = test system: LOX IMVI melanoma
COLO 205 colon = test system: COLO 205 colon
RPMI-8226 leukemia = test system: RPMI-8226 leukemia
NCI-H23 lung = test system: NCI-H23 lung
RXF 393 renal = test system: RXF 393 renal
ACHN renal = test system: ACHN renal
SF-268 CNS = test system: SF-268 CNS
DU-145 prostate = test system: DU-145 prostate
HOP-92 NSCLC = test system: HOP-92 NSCLC
MDA-MB-435 = test system: MDA-MB-435
HS 578T breast = test system: HS 578T breast
SR leukemia = test system: SR leukemia
786-0 renal = test system: 786-0 renal
OVCAR-3 ovarian = test system: OVCAR-3 ovarian
U251 CNS = test system: U251 CNS
NCI-H226 lung = test system: NCI-H226 lung
HCT-15 colon = test system: HCT-15 colon
HT29 colon = test system: HT29 colon
A498 renal = test system: A498 renal

Structure (SMILES) | TGI (LOX IMVI melanoma) | TGI (COLO 205 colon) | TGI (RPMI-8226 leukemia) | TGI (NCI-H23 lung) | TGI (RXF 393 renal) | TGI (ACHN renal) | TGI (SF-268 CNS) | TGI (DU-145 prostate) | TGI (HOP-92 NSCLC) | TGI (MDA-MB-435) | TGI (HS 578T breast) | TGI (SR leukemia) | TGI (786-0 renal) | TGI (OVCAR-3 ovarian) | TGI (U251 CNS) | TGI (NCI-H226 lung) | TGI (HCT-15 colon) | TGI (HT29 colon) | TGI (A498 renal)
CCOC(=O)c1sc2c(c1O)c(=O)n(-c1ccccc1)c(=S)n2-c1ccccc1 | > 100 µM | > 100 µM | > 100 µM | > 100 µM | > 100 µM | > 100 µM | > 100 µM | > 100 µM | > 100 µM | > 100 µM | > 100 µM | 46.9 µM | > 100 µM | > 100 µM | > 100 µM | > 100 µM | > 100 µM | > 100 µM | –
CC(C)CCC[C@@H](C)C1CCC2[C@@H]3CCC4C[C@@H](NS(C)(=O)=O)CC[C@]4(C)C3CC[C@@]21C (some centres undefined) | > 100 µM | > 100 µM | > 100 µM | > 100 µM | > 100 µM | – | > 100 µM | > 100 µM | – | > 100 µM | > 100 µM | > 100 µM | > 100 µM | > 100 µM | > 100 µM | > 100 µM | > 100 µM | > 100 µM | –
C=C1C(=O)O[C@H]2C/C(C)=C/CC[C@]3(C)CCC[C@](C)(CC[C@@H]12)O3 | > 50 µM | 14.8 µM | 20 µM | 27.2 µM | 18.4 µM | 17.2 µM | 16.3 µM | > 50 µM | 15.2 µM | 15.6 µM | 48 µM | 22.5 µM | 16.4 µM | 18.5 µM | 17.7 µM | 27.7 µM | > 50 µM | 15.2 µM | –
CC1(C(=O)O)C[C@](C)(C(=O)OCc2ccccc2)C[C@](C)(C(=O)OCc2ccccc2)C1 (some centres undefined) | 92.4 µM | 33.8 µM | 72.6 µM | 56.6 µM | 56.4 µM | 57.5 µM | > 100 µM | > 100 µM | 54 µM | > 100 µM | 89.8 µM | 83.7 µM | > 100 µM | 73.7 µM | – | > 100 µM | 85.9 µM | > 100 µM | –
CCOC(=O)N(C)C(=C(F)F)C(F)(F)F | 85.5 µM | 44 µM | 49 µM | 69.8 µM | – | – | 97.4 µM | > 100 µM | 65.2 µM | 46.2 µM | > 100 µM | 20.9 µM | 72 µM | > 100 µM | > 100 µM | 58.3 µM | 34.3 µM | 78.2 µM | –
CC(=O)Oc1c(OC(C)C)c(C)c(O[Si](C(C)C)(C(C)C)C(C)C)c2[nH]c3ccccc3c12 | > 100 µM | > 100 µM | > 100 µM | > 100 µM | > 100 µM | > 100 µM | > 100 µM | > 100 µM | > 100 µM | > 100 µM | > 100 µM | 99.3 µM | > 100 µM | > 100 µM | > 100 µM | > 100 µM | > 100 µM | > 100 µM | –
CSC1=C(C(=O)Nc2ccc(C)cc2)C(N)=NC1=O | > 100 µM | > 100 µM | > 100 µM | > 100 µM | > 100 µM | > 100 µM | > 100 µM | > 100 µM | > 100 µM | > 100 µM | > 100 µM | > 100 µM | > 100 µM | – | > 100 µM | > 100 µM | > 100 µM | > 100 µM | –
CCOC(=O)CCC(NC(=O)C(N)c1ccc([N+](=O)[O-])cc1)C(=O)NC(CCC(=O)OCC)C(=O)OCC (centres undefined) | – | > 100 µM | > 100 µM | > 100 µM | – | > 100 µM | – | – | > 100 µM | – | > 100 µM | > 100 µM | > 100 µM | – | > 100 µM | > 100 µM | > 100 µM | > 100 µM | > 100 µM
O=c1cc(NNc2ccccc2F)[nH]c(=O)[nH]1 | 29.7 µM | 33.8 µM | 46.2 µM | 31.6 µM | 3.29 µM | 32.3 µM | 35.2 µM | > 100 µM | 29.2 µM | – | 63.4 µM | 7.37 µM | 28.7 µM | 31.6 µM | 31.9 µM | 42.8 µM | 29.6 µM | 34.9 µM | > 100 µM
Nc1ncnc2c1ncn2-c1ccc([N+](=O)[O-])cn1 | > 100 µM | > 100 µM | > 100 µM | > 100 µM | > 100 µM | > 100 µM | > 100 µM | > 100 µM | > 100 µM | > 100 µM | > 100 µM | – | > 100 µM | > 100 µM | > 100 µM | > 100 µM | > 100 µM | > 100 µM | > 100 µM
NS(=O)(=O)c1nnc(NC(=O)c2cccc([N+](=O)[O-])c2)s1 | > 100 µM | > 100 µM | > 100 µM | > 100 µM | > 100 µM | > 100 µM | > 100 µM | > 100 µM | > 100 µM | > 100 µM | > 100 µM | > 100 µM | > 100 µM | > 100 µM | > 100 µM | > 100 µM | > 100 µM | – | –
CCc1[nH]c(=O)c2oc3cc4ccccc4cc3c2c1C(=O)O | > 10 µM | – | – | – | > 10 µM | > 10 µM | > 10 µM | > 10 µM | > 10 µM | – | > 10 µM | > 10 µM | > 10 µM | > 10 µM | – | > 10 µM | > 10 µM | > 10 µM | –
